We go through 1 compound from BindingDB's records for doi:10.1021/acs.jmedchem.1c01681 (Second Military Medical University, 2021).

The nature of the assay: Inhibition of SARS-CoV-2 spike glycoprotein expressed in HEK293T cells transfected with pAAV-CAG-HnCovS-RFP assessed as inhibition of membrane fusion to Huh-7 cells expressing hACE2 measured after 4 hrs by cell-cell fusion based fluorescence assay.

`CC[C@H](C)[C@H](NC(=O)CNC(=O)[C@H](CO)NC(=O)[C@@H](NC(=O)[C@H](CC(=O)O)NC(C)=O)[C@@H](C)CC)C(=O)N[C@@H](CC(N)=O)C(=O)N[C@@H](C)C(=O)N[C@@H](CO)C(=O)N[C@H](C(=O)N[C@H](C(=O)N[C@@H](CC(N)=O)C(=O)N[C@H](C(=O)N[C@@H](CCC(N)=O)C(=O)N[C@@H](CCCCN)C(=O)N[C@@H](CCC(=O)O)C(=O)N[C@H](C(=O)N[C@@H](CC(=O)O)C(=O)N[C@@H](CCCNC(=N)N)C(=O)N[C@@H](CC(C)C)C(=O)N[C@@]1(C)CCCC=CCCC[C@@](C)(C(=O)N[C@@H](CC(N)=O)C(=O)N[C@@H](CC(C)C)C(=O)N[C@@H](CC(N)=O)C(=O)N[C@@H](CCC(=O)O)C(=O)N[C@@H](CO)C(=O)N[C@@H](CC(C)C)C(=O)N[C@H](C(=O)N[C@@H](CC(=O)O)C(=O)N[C@@H](CC(C)C)C(=O)N[C@@H](CCC(N)=O)C(=O)N[C@@H](CCC(=O)O)C(=O)N[C@@H](CC(C)C)C(N)=O)[C@@H](C)CC)NC(=O)[C@H](C)NC(=O)[C@H](C(C)C)NC(=O)[C@H](CCC(=O)O)NC1=O)[C@@H](C)CC)[C@@H](C)CC)C(C)C)C(C)C`: the half-maximal effective concentration (EC50) came to 5 µM.

Broadly, the EC50 is the concentration at which the effect is half-maximal.
